Measurements as given in patent US6863647B2, “2-Ureido-thiazole derivatives, process for their preparation, and their use as antitumor agents” (Pharmacia & Upjohn S.p.A., priority 1998, dated 2005).

Target: cdk2/cyclin A complex (Homo sapiens, UniProt P24941)
Experiment: inhibition assay of cdk2/Cyclin A activity (MultiScreen-PH phosphocellulose filter, 33P-labelled histone H1)
Format: biochemical
Details: histone H1 substrate, 25 μM ATP; inhibitor 0.0045 to 10 μM; read-out: inhibiting activity towards the cdk2/cyclin A complex (IC50)
Description: The inhibiting activity of putative cdk/cyclin inhibitors and the potency of selected compounds was determined through a method of assay based on the use of the MultiScreen-PH 96 well plate (Millipore), in which a phosphocellulose filter paper was placed at each well bottom allowing binding of positive charged substrate after a washing/filtration step.
When a radioactivity labelled phosphate moiety was transferred by the ser/threo kinase to the filter-bound histone, light emitted was measured in a scintillation counter.
The inhibition assay of cdk2/Cyclin A activity was performed according to the following protocol: • Kinase reaction: 1.5 μM histone H1 substrate, 25 μM ATP (0.5 μCi P^33γ-ATF), 30 ng Cyclin A/cdk2 complex, 10 μM inhibitor in a final volume of 100 μl buffer (TRIS HCl 10 mM pH 7.5, MgCl2 10 mM, 7.5 mM DTT) were added to each well of a 96 U bottom well plate. […] Plates were then washed 3 times with 150 μl/well PBS Ca^++/Mg^++ free and filtered by MultiScreen filtration system. • Detection: filters were allowed to dry at 37° C., then 100 μl/well scintillant were added and ^33P labelled histone H1 was detected by radioactivity counting in the Top-Count instrument. • Results: data were analysed and expressed as % inhibition referred to total activity of enzyme (=100%). […]

Cc1cc(C)cc(NC(=O)Nc2ncc(C(C)C)s2)c1 [N-(5-isopropyl-1,3-thiazol-2-yl)-N′-(3,5-dimethylphenyl)urea]
IC50: 560 nM
